Values after ≈ are worked out from the molar mass of the structure shown.
How the values were obtained:
[1] = tested on: urease; assay: Selectivity screen: urease inhibition; type: biochemical
[2] = tested on: voltage-dependent Ca^2+ channels; assay: Ca2+ concentration-response curves in Ca2+-free medium, rabbit jejunum; settings: Ca^2+-free medium, Sarcorucinine-D 10–30 µg/mL, verapamil 0.05–0.5 µg/mL
Protocol: Another set of confirmatory experiments was also performed to be sure of any potential CCB activity. For this, the regular Tyrode’s physiological salt solution in which the tissues were originally immersed was removed. The baths were filled with a Ca^2+–free Tyrode’s solution with EDTA (0.1 mM). The tissues were left in this solution for half an hour. Later, another replacement was carried out using K^+-rich and Ca^2+-free Tyrode’s solution. The tissues were again left to stabilize for half an hour, and then, the control concentration–response curves of Ca^2+ were constructed and recorded. These control Ca^2+ concentration–response curves were duplicated after pretreatment of the tissues for one hour with different concentrations of Sarcorucinine-D. Any possible CCB effect of Sarcorucinine-D would tend to displace the Ca^2+ concentration–response curves to the right-hand side. The effects of Sarcorucinine-D were compared to those of a standard CCB, verapamil.

[3] = tested on: phosphodiesterase
Protocol: (§1) To test the selectivity of the compound, Sarcorucinine-D was also tested for the inhibition of several other enzymes such as phosphodiesterase, α-glucosidase, β-glucuronidase, and urease enzymes. The assays of these enzymes are reported elsewhere.

[4] = tested on: α-glucosidase
Protocol: as §1

[5] = molecular target: T1, Torpedo californica AChE (TcAChE) (Tetronarce californica, UniProt P04058); assay: biochemical; settings: mean ± SEM of three experiments
T1 construct: purchased Sigma-Aldrich Corporation
T1 sequence (P04058 22-586): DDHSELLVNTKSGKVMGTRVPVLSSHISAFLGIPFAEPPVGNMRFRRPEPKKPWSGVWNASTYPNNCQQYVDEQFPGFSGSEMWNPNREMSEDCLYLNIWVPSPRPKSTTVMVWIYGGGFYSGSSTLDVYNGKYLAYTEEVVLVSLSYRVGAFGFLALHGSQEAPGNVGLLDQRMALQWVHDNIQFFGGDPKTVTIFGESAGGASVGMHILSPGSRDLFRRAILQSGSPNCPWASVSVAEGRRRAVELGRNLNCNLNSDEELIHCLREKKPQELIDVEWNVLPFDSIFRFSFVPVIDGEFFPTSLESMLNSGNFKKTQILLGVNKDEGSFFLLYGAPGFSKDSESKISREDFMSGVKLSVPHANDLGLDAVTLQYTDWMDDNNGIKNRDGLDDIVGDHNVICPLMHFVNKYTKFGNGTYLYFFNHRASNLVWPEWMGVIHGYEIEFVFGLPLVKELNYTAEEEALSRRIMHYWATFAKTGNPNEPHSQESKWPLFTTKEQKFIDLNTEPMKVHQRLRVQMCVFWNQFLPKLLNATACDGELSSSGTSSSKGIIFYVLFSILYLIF
Protocol: (§2) The enzyme activity was measured in vitro via a modified spectrophotometric method developed by Ellman et al.. Acetylthiocholine iodide (ATCh) and butyrylthiocholine chloride (BTCh) were used as substrates for the AChE and BChE enzymes, respectively. Ellman reagent, i.e., 5,5-dithiobis (2-nitro) benzoic acid (DTNB), was used to produce the chromogenic indicator for the measurement of the ChE activity using a SpectraMax microplate spectrophotometer (Molecular Devices, CA, USA), as reported previously.
(§3) The IC50 values were calculated using the EZ-Fit program (Perrella Scientific Inc., Amherst, MA, USA). Lineweaver–Burk plots, Dixon plots, and their secondary replots were used to observe the effects of the compound on the values of Km and Vmax. Dixon plots, Lineweaver–Burk plots, and the secondary replots of Lineweaver–Burk plots were used to determine Ki values using initial velocities. […] The graphical analysis of the Dixon plots, Lineweaver–Burk plots, and their secondary plots was used to determine the inhibition type.

[6] = molecular target: T2, BChE (horse serum) (Equus caballus, UniProt P81908); assay: biochemical; type: biochemical
T2 construct: purchased Sigma-Aldrich Corporation; host or cells: horse serum
T2 sequence (P81908 whole entry): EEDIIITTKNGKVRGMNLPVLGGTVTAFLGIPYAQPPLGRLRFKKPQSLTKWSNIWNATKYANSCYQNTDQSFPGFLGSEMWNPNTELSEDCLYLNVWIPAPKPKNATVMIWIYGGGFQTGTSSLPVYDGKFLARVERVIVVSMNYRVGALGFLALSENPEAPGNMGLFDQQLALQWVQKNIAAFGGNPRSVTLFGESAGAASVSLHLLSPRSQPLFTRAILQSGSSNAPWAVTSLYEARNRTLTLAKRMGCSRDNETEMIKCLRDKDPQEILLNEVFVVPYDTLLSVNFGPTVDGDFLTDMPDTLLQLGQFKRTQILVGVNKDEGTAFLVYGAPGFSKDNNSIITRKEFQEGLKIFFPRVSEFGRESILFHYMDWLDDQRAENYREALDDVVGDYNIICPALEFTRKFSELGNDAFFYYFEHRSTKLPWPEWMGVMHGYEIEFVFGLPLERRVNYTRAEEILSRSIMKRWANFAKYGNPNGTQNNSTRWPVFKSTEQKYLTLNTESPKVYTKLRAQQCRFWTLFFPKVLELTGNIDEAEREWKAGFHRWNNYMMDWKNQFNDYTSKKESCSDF
Protocol: as §2, §3

[7] = tested on: β-glucuronidase; assay: Selectivity screen: β-glucuronidase inhibition; type: biochemical
[8] = tested on: MDBK cells; assay: MTT cytotoxicity test; settings: MDBK, MTT, concentration range 0.019–1.56 μg/mL, 72 h
Protocol: (§4) The MTT (3-[4,5-dimethylthazol-2-yl]-2,5-diphenyltetrazolium bromide) test was performed using MDBK adherent cells.

[9] = MTT cytotoxicity test; settings: bovine, MDBK adherent cells
Protocol: as §4

Structure (SMILES)	Selectivity screen result, urease [1]	Effect on CaCl2 concentration–response curves [2]	Selectivity screen result, phosphodiesterase [3]	Selectivity screen result, α-glucosidase [4]	Ki ([5]; from Dixon plot, Lineweaver–Burk plot and secondary replots, read-out: Acetylcholinesterase Ki) [µM]	IC50 ([5]; read-out: Acetylcholinesterase IC50) [µM]	IC50 [6] [µM]	Ki [6] [µM]	Selectivity toward BChE over AChE ([6]; from the data of Table 1)	Selectivity screen result, β-glucuronidase [7]	Cytotoxic effect at low concentrations [8]	IC50 at 72 h [9] [µg/mL]
CC(C1CCC2C3CCC4CC(O)CCC4(C)C3CCC21C)N(C)C (stereo not shown) [Sarcorucinine-D]	selective ChE inhibitor	displaced the CaCl2 curves to the right	selective ChE inhibitor	selective ChE inhibitor	103 ± 6.67	42.9 ± 3.13	8.87 ± 0.56	4.66 ± 0.3	approximately 22 times	selective ChE inhibitor	No cytotoxic effect	2.24 (≈ 6.44 µM)
COc1ccc(CCN(C)CCCC(C#N)(c2ccc(OC)c(OC)c2)C(C)C)cc1OC (stereo not shown) [verapamil, reference compound]	–	displaced the CaCl2 curves to the right	–	–	–	–	–	–	–	–	–	–

— publication PMC9182202 (Molecules, 2022)
